Molecules are shown by their SMILES.

This experiment concerns PC-3. Briefly: Induction of apoptosis in human PC-3 cells assessed as late apoptotic cells at 0.08 uM incubated for 24 hrs by Annexin V-FITC and PI staining based flow cytometry (reference value: 1.02%). Format: functional.

For `COc1ccc(/C=C/C(=O)c2ccc(OC)c3c2OC(C)(C)C=C3)cc1NCC(=O)NO`, the Activity is 2.59%.

For the origin of these results see ChEMBL document CHEMBL5506003, “Design and biological evaluation of dual tubulin/HDAC inhibitors based on millepachine for treatment of prostate cancer” (Eur J Med Chem, 2024).
